Target: T1, Sc-FAR-2 (Steinernema carpocapsae, UniProt A0A4U5NI02)
T1 construct: gene L596_016036; mature protein (signal peptide removed), N-terminal His6 tag cut off with TEV protease, E. coli BL21-CodonPlus, about 20 kDa family
Test: fluorescence titration, one-site fit
Assay type: binding

T1 sequence (A0A4U5NI02 entry or part of it): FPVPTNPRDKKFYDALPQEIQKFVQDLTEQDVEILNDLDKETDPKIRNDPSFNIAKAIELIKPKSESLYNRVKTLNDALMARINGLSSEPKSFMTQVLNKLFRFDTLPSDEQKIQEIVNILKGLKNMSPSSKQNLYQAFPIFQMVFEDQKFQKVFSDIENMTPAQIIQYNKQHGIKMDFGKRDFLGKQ

## CN(C)c1cccc2c(S(=O)(=O)NCCCCCCCCCCC(=O)O)cccc12 [DAUDA]
  Kd: 21.8 µM

Source: PMC8580252, “Parasitic nematode fatty acid- and retinol-binding proteins compromise host immunity by interfering with host lipid signaling pathways” (PLoS Pathogens, 2021)
